Source: patent US4997838A, “Pyrrolopyrimidine derivatives, their production and use” (Takeda Chemical Industries, Ltd., priority 1988, dated 1991)
≈ marks a conversion by molar mass, not a printed value. Blank lines part the entries; values can stand above or below the molecule they belong to.

Experiments:
[1] = test system: dihydrofolic acid reductase; conditions: in words; cited from earlier work
solid cancer = conditions: in words; clinical use; cited from earlier work
[2] = test system: Human nasopharyngeal cancer KB cells; assay: cell growth inhibiting effect in KB cells (MTT); type: cell-based; conditions: 72 hours
Method: Human nasopharyngeal cancer KB cells (1×10^4 cells/ml) prepared according to a conventional method were inoculated into each well of the 96-microwell plate (0.1 ml in a well) and subjected to standing culture at 37° C. under 5% CO2 for 24 hours. To this was added a solution of one of the compounds obtained in the Working Examples in 10% MEM (Nissui Pharmaceutical Co. Ltd.), and subjected again to standing culture at 37° C. under 5% CO2 for 72 hours. Then the culture was pipetted out, and another 0.1 ml of the solution of MTT (Dojindo Laboratories) in 10% MEM (1.0 mg/ml) was added and incubated at 37° C. for 4 hours. Then 0.1 ml of the 10% SDS solution (Wako Pure Chemicals) was added and incubated at 37° C. for further 24 hours. The absorbance at 590 nm was measured and the IC50 value of the compound was defined as the concentration of the compound required to decrease the number of cells in the untreated control group by 50%.

[3] = test system: Human Leukemia cells HL-60; assay: cell growth inhibiting effect in HL-60 cells ([3H]-thymidine incorporation); type: cell-based; conditions: HL-60, 68 hours + 4 hours [3H]-thymidine
Method: (1) Human Leukemia cells HL-60 (2×10^5 cells/ml) were suspended in the GIT culture medium (Wako Pure Chemicals) containing the compound of this invention and 0.2 ml of the suspension was inoculated into each well of the 96-microwell plate. After standing culture at 37° C. under 5% CO2 for 68 hours, 1 μCi of [^3 H]-thymidine (5 Ci/mmol) was added and the mixture was incubated for 4 further hours. For measurement of the incorporation of thymidine into the cells, the acid-insoluble fraction was collected on a glass filter, and the radioactivity of the fraction was measured by a liquid scintillation counter. The IC50 value of the compound was defined as the concentration of the compound required to decrease the radioactivity incorporated into the cells in the untreated control group by 50%.

[4] = test system: Human fetal normal lung fibroblasts HEL; assay: cell growth inhibiting effect in HEL cells (MTT); type: cell-based; conditions: Fibroblast, 72 hours
Method: (2) Human fetal normal lung fibroblasts HEL (1×10^4 cells/ml) were suspended in the MEM culture medium (Nippon Flow Laboratories) and 0.1 ml of the suspension was inoculated into each well of the 96-microwellplate. After standing culture at 37° C. under 5% CO2 for 24 hours, MEM culture medium containing the compound of this invention was added and the mixture was incubated for further 72 hours. The medium was replaced by the medium containing 1 μg/ml of MTT (Dojindo Laboratories), to which was added 10% SDS (Wako Pure Chemicals), and incubated overnight. Absorbance at 590 nm was measured by he Multiscan (Titertec Co.). The IC50 value was determined by comparing the absorbance in the untreated control group.

IC50 [3]: 0.04 µg/mL
Structure (SMILES): Nc1nc(O)c2c(n1)NCC2CCCc1ccc(C(=O)N[C@@H](CCC(=O)O)C(=O)O)cc1 (stereo partly drawn) [Working Example 14, N-[4-[3-(2-amino-4-hydroxy-5,6-dihydropyrrolo[2,3-d]pyrimidin-5-yl)propyl]benzoyl]-L-glutamic acid]
IC50 [4]: > 20 µg/mL

IC50 [2]: 0.0006 µg/mL (≈ 1.36 nM)
Structure (SMILES): Nc1nc(N)c2c(n1)NCC2CCCc1ccc(C(=O)N[C@@H](CCC(=O)O)C(=O)O)cc1 (stereo partly drawn) [Working Example 16, N-[4-[3-(2,4-diamino-5,6-dihydropyrrolo[2,3-d]pyrimidin-5-yl)propyl]benzoyl]-L-glutamic acid]

Further lines, the molecule ahead of its results:

Structure (SMILES): CN(Cc1cnc2nc(N)nc(N)c2n1)c1ccc(C(=O)N[C@@H](CCC(=O)O)C(=O)O)cc1 [MTX]
inhibition of dihydrofolic acid reductase [1]: inhibit the reduction from dihydrofolic acid into tetrahydrofolic acid by coupling strongly with the dominant enzyme | effect on solid cancer (solid cancer): little effect on solid cancer | toxicity (solid cancer): relatively strong toxicity

Structure (SMILES): Nc1nc(N)c2c(CCCc3ccc(C(=O)N[C@@H](CCC(=O)O)C(=O)O)cc3)c[nH]c2n1 [Working Example 4, N-[4-[3-(2,4-diamino-7H-pyrrolo [2,3-d]pyrimidin-5-yl)propyl]benzoyl]-L-glutamic acid]
IC50 [2]: 0.0003 µg/mL (≈ 0.681 nM)

Structure (SMILES): Nc1nc(N)c2c(CCCc3ccc(C(=O)N[C@@H](CCC(=O)O)C(=O)O)cc3)c(O)[nH]c2n1 [Working Example 6, N-[4-[3-(2,4-diamino-6-hydroxy-7H-pyrrolo[2,3-d]pyrimidin-5-yl)propyl]benzoyl]-L-glutamic acid]
IC50 [2]: 0.08 µg/mL (≈ 175 nM)
